This note sets out measurements from patent US20260027126A1, “COMBINATION THERAPY FOR TREATING CANCERS” (GEISTLICH PHARMA AG, priority 2022, published 2026).

The subject of data set [1] is high-grade ovarian cancer cells (OVCAR8) labeled with luciferase gene. Description: in vivo therapy experiment, orthotopic OVCAR8-L ovarian cancer mouse model. On the set-up: species or system mice. The settings on record: GP-2250 500 mg/kg 3 times per week i.p., PARP inhibitor 50 mg/kg 5 times per week i.p., take down day 49. As for the experimental part:
FIG. 1 schematically illustrates the experimental design for in vivo testing of the GP-2250 and PARP inhibitors on OVCAR8-L mice. The experiment includes testing: vehicle control, Ringer's solution (10 mice, 200 μl, i.p.); 2) GP-2250 (10 mice, 500 mg/kg. 3 times per week, i.p.); 3) Olaparib (10 mice, 50 mg/kg, 5 times per week, i.p.); 4) the combination of GP-2250 and Olaparib; 5) Niraparib (10 mice, 50 mg/kg, 5 times per week, i.p.); 6) the combination of GP-2250 and Niraparib (10 mice): 7) Rucparib (10 mice, 50 mg/kg, 5 times per week, i.p.); 8) the combination of GP-2250 and Rucaparib . . .
Tumorigenicity of OVCAR8-L was determined using IVIS imaging. IVIS imaging following OCVAR8-L injection. 1×10^6 cells were injected through i.p., and then tumorigenicity was measured. All mice were injected with high-grade ovarian cancer cells (OVCAR8) labeled with luciferase gene by i.p. route.
(§1) In vivo model of ovarian cancer: Pharmacodynamic study and therapeutic experiment using OVCAR8 ovarian cancer model were performed.

Data set [2] concerns ovarian cancer cell lines. Put plainly: cytotoxic effect / cell viability assay in ovarian cancer cell lines. In kind it is cell-based, Human. As for the experimental part:
(§2) Human Ovarian cancer cell lines: A2780, Coav3, HeyA8, HeyA8-MDR, Kuramochi, OVCAR3, OVCAR5, OVCAR8, and SKOV3 were obtained and used in studies.
(§3) In vitro assays: Cell viability assay, Western blotting, Colony formation assay, Reverse-phase protein array, and Ultra-high resolution mass spectrometry analysis were performed.
as §1

The test system of data set [3] is HIF-1α. Put plainly: Reverse Phase Protein Array / Western blotting of ovarian cancer cells: HIF-1α. It counts as cell-based, Human. As for the experimental part: as §2, §3
In general terms: In western blotting, separated proteins are transferred to a membrane and probed.

Data set [4] concerns AKT. Put plainly: Reverse Phase Protein Array / Western blotting of ovarian cancer cells: AKT. It counts as cell-based, Human. As for the experimental part:
as §2, §3

Data set [5] has as its system mTOR. Put plainly: Reverse Phase Protein Array / Western blotting of ovarian cancer cells: mTOR. In kind it is cell-based, Human. As to the method: as §2, §3
The target of data set [6] is T1, hexokinase2 (Homo sapiens, UniProt P52789).
T1 construct: endogenous in cells; host or cells: human ovarian cancer cell lines
T1 sequence (P52789 1-917): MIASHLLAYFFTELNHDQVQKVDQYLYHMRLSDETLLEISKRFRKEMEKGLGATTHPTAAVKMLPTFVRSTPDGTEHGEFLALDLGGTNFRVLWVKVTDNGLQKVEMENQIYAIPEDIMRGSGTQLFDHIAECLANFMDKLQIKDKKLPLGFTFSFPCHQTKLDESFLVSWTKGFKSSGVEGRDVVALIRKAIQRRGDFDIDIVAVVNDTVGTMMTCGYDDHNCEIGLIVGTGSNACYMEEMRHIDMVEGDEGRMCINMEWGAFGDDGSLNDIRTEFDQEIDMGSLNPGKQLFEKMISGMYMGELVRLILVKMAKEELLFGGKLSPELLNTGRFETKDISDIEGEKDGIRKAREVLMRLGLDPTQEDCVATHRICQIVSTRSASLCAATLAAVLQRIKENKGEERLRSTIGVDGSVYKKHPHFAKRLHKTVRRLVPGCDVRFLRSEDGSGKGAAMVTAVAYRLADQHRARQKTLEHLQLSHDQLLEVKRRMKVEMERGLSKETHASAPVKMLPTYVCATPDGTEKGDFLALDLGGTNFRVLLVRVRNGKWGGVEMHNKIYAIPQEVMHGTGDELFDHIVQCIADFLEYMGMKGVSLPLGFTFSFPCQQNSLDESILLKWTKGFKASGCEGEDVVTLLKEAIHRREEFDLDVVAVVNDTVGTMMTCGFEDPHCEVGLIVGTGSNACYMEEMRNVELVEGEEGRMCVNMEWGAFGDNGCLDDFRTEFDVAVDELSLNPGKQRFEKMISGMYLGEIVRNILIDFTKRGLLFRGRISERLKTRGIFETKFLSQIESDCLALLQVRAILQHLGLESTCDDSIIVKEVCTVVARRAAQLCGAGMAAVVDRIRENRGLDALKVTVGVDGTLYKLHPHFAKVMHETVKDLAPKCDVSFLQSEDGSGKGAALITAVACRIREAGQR
Put plainly: hexokinase2 activity and expression (ultra-high resolution mass spectrometry analysis, FIG. 16). It counts as cell-based. The settings on record: GP-2250 treatment of cancer cells. As to the method:
as §2, §3

Data set [7] has as its system cancer cells. Put plainly: glycolysis and ATP synthesis in cancer cells. It counts as cell-based, Human. As for the experimental part:
as §3

Data set [8] deals with AKT. Put plainly: in vivo pharmacodynamic experiment, OVCAR8 mouse model: AKT. The settings on record: dose of 500 mg/kg. As for the experimental part: as §1
(§4) FIGS. 17A-17B show pharmacodynamics studies of GP-2250.

In data set [9] the test system is mTOR. Description: in vivo pharmacodynamic experiment, OVCAR8 mouse model: mTOR. The settings on record: dose of 500 mg/kg. As to the method:
as §1, §4

A short description of data set [10]: solubility. It counts as physicochemical.
Setting [11] is: Western blot, ovarian cancer cells treated for 24 hours.

Entries after “also recorded” stand apart in the source; their conditions may differ.

Turning to `O=S1(=O)CCOCN1` [GP-2250], in [1], the “tumor nodules (number)” value is listed as 2.9±0.48 and the tumor weight was found to be 2.9 ± 0.48 g. Further, the “cytotoxic effect: vulnerability of HRD versus HRP ovarian cancer cells” value in [2] (HRD cells (Kuramochi, OVCAR4, OVCAR8) compared with HRP cells (A2780, OVCAR5), both vulnerable) was “more vulnerable”. For the same compound, in [2] (ovarian cancer cells), the apoptosis result is recorded as “increased apoptosis” and the proliferation entry is “reduced proliferation”. For the same compound, the “hypoxia-inducible factor-1a activation and expression level” value in [3] (RPPA analyses) is on record as “inhibited”. Besides, the HIF-1α expression result in data set [3] (setting [11]) is listed as “inhibits”. For the same compound, the “AKT activation and expression level” value in data set [4] (RPPA analyses) is “inhibited”. The AKT expression entry in data set [4] (setting [11]) is “inhibits”. Further, the “mTOR activation and expression level” value in data set [5] (RPPA analyses) is listed as “inhibited”. Moreover, the mTOR expression entry in data set [5] (setting [11]) is on record as “inhibits”. Besides, the “hexokinase2 activity and expression” value in data set [6] is listed as “inhibition; also recorded: significantly reduced”. Moreover, in data set [7], the ATP synthesis entry is listed as “reduced” and the glycolysis entry was “decreases; also recorded: reduced”. Also, the “downregulation of AKT activation and expression” value in [8] is recorded as “most effective”. For the same compound, the “downregulation of mTOR activation and expression” value in data set [9] was “most effective”.
As to `NC(=O)c1cccc2cn(-c3ccc([C@@H]4CCCNC4)cc3)nc12` [niraparib], in data set [1], the “tumor nodules (number)” value was found to be 3.4±0.44 and the tumor weight was determined as 0.38 ± 0.05 g.
Take `O=C(c1cc(Cc2n[nH]c(=O)c3ccccc23)ccc1F)N1CCN(C(=O)C2CC2)CC1` [olaparib]: in data set [1], the “tumor nodules (number)” value was 3.3±0.64 and the tumor weight turned out to be 0.53 ± 0.09 g.
On to `CNCc1ccc(-c2[nH]c3cc(F)cc4c3c2CCNC4=O)cc1` [rucaparib], for which, in data set [1], the “tumor nodules (number)” value is 4.85±0.79 and the tumor weight was found to be 0.52 ± 0.1 g. The solubility result in data set [10] was “relatively poor solubility”.
